# Measured values from patent publication EP1176134A1, “LIGANDS OF NUCLEAR RECEPTORS PPAR'S” (Nuclear Receptor Research Limited, priority 1999, dated 2000).
# Tests used:
# [1] = test system: PPARγ; experiment: transfer (reporter) gene activity assay in transfected COS-1 cells, PPARγ; format: cell-based; details: luciferase reporter, 20 hours
# Procedure: Transfection was performed by a standard procedure using a LipofectAMINE reagent from Life Technologies. A 35 mm Petri dish containing 1 x 10^5 cells dispersed in 2 ml of Dulbecco's minimum medium (DMEM) containing 10% fetal bovine serum was incubated in a CO2 incubator for 17 hours. Then, the medium was removed and cells adhered to the Petri dish were washed with phosphate buffered physiological saline (PBS), after which transfection was performed using a LipofectAMINE reagent. That is, […] of a minimum serum medium OptiMEM (Life Technologies) containing […] of a plasmid bearing the luciferase gene whose expression is controlled by PPAR-responsive elements, […] of a PPAR expression plasmid and 2 mg of a plasmid bearing the β-galactosidase gene for monitoring transfection efficiency was preliminarily mixed with […] of OptiMEM containing 50 ml of LipofectAMINE dissolved therein, and the mixed solution was maintained at room temperature for 15 minutes. A Petri dish containing a mixture of 100 ml of this mixed solution and 400 ml of OptiMEM was incubated in a CO2 incubator at 37°C for 3 hours. The transfection medium was aspirated off from the Petri dish, which was supplied with DMEM containing 10% serum treated with activated carbon and a test compound and incubated at 37°C for 20 hours. […] The medium also contains a solvent for test compounds dimethyl sulfoxide (final concentration 0.1%).
# (§1) After the medium in the Petri dish was aspirated off, […] of a lysing solution for cultured cells (25 mM Tris phosphate buffer (pH 7.8), 2 mM 1,2-diaminocyclo-hexane-N, N,N',N'-tetraacetate, 10% glycerol, 1% Triton X-100) was added and cells were scraped with rubber policeman. Cells were completely disrupted by freezing and thawing and then centrifuged at 4°C (15,000 rpm, 2 min), and the supernatants were used as test samples. […] The β-galactosidase for monitoring transfection efficiency was measured for fluorescence in a luminometer using Luminescent β-galactosidase detection kit II (Clontech). […]
# [2] = test system: rat hypertension model; experiment: prevention of aneurysms in DOCA/saline one-kidney rat hypertension model; format: in vivo, male Wistar rats
# Procedure: Compounds of the present invention show the effect of preventing periarteritis nodosa and aneurysms. In order to evaluate the effect of preventing aneurysms, a quantitatively assayable rat hypertension model was used so that aneurysms formed in mesenteric arteries were measured and statistically processed to determine the effect. The membrane was removed with forceps from isolated mesenterium and the remaining arterioles were fixed with formalin and then fat-stained. The number of arterioles and the number of aneurysms were counted in triplicate to calculate the average number of aneurysms per arteriole. As a hypertension model, rats with one kidney extracted to decrease renal function were given 0.9% saline as drinking water having a slightly higher osmosis than plasma and subcutaneously received 10 mg/kg of a mineral corticoid deoxycorticosteron acetate (DOCA) weekly. The left kidney was extracted from male Wistar rats (12 animals) under anesthetization. The rats deprived of kidney were randomly divided into two groups (n = 6) after a period of recovery for a week. One of the two groups was a control group and the other received compound 1. […] The experimental period was 7 weeks, during which feed intake, drinking water intake, urine volume, body weight and blood pressure were measured every 3 days from the start of experiments. […]
# [3] = test system: streptozotocin-induced diabetes; experiment: streptozotocin-induced diabetes in rats; format: in vivo, male Wistar rats; details: 100 mg/kg orally once daily; for Body weight / Drinking water intake / Feed intake / Urinary sugar excretion / Urine volume: n=8
# Procedure: Streptozotocin (50 mg/kg) was injected into the tail vein of male Wistar rats weighing about 250 g to prepare an insulin deficiency diabetes model. Compound 1 suspended in a gum arabic solution was orally administered at 100 mg/kg once daily, starting immediately after administration of streptozotocin. The animals were housed in a urine-collecting cage for 24 hours on days 7 and 14 to collect urine for 24 hours. […] However, weight gain was 80 g/week in the healthy group in contrast with only 18 g/week in the diabetes control group. […] This means that administration of compound 1 improved metabolism to greatly reduce urinary sugar excretion.
# [4] = test system: NOD mice; experiment: prevention of onset of type I diabetes in NOD mice; format: in vivo, female NOD mice; details: 10 animals
# Procedure: (§2) Each group consists of 10 animals.
# The mice were bred for 24 weeks, during which they were tested for urinary sugar excretion using an urinary sugar detection tape on Monday and Friday (Fig. 3).
# [5] = test system: Ehrlich ascites tumor cells; experiment: hyperlipidemia (cachexia marker) in Ehrlich ascites tumor bearing mice; format: in vivo, male ddY-strain mice; details: for Body weight / Serum neutral Serum neutral fat: day 8, mean±SD, n=8
# From the text: In these experiments, serum neutral fat was selected as an indication of cachexia to serve as an auxiliary marker for knowing dynamics of TNFα that is difficult to quantitize, because it is difficult to exactly measure blood TNFα and it is easier to measure serum neutral fat than blood TNFα. Forty male ddY-strain mice at 5 weeks of age were randomly divided into 5 groups (n = 8), among which 4 groups were intraperitoneally implanted with 2 x 10^6 Ehrlich ascites tumor cells. The group implanted with no tumor cells was a healthy control group. From 24 hours after implantation of tumor cells, 3 groups intraperitoneally received 100-400 mg/kg of compound 1, while the other group received a solvent 0.1% Tween 80 (0.2 ml) alone free from compound 1. On day 8 after implantation of tumor cells, blood was collected from the heart of tumor bearing mice to assay neutral fat in separated serum and detect blood TNFα by immunoelectrophoresis.
# [6] = test system: serum lipid; details: cited from earlier work
# [7] = test system: DOCA hypertension rats; details: orally administered to DOCA hypertension rats; cited from earlier work
# [8] = test system: hereditary obese and diabetic mice C57BL/ksj db/db; experiment: polydipsia/polyuria and urinary sugar excretion in db/db mice fed compound in diet; format: in vivo
# Procedure: Ten male db/db mice at 30-32 weeks of age were randomly divided into two groups (n = 5), ie, a control group and compound 17 group. The animals were allowed free access to diet and drinking water. The diet was mouse II rat standard food CE-2 powder from Clea Japan, which was pelletized after a solution of compound 17 in acetone was applied and acetone was evaporated by air-drying. Compound 17 was added in an amount of 0.1% of the diet. A control diet was also pelletized after the same amount of acetone was applied.
# Both groups received the control diet for first 7 days to test feed intake, urine volume, urinary sugar level and urinary sugar excretion level. During the following 5 days, the treatment group received the diet containing 0.1% compound 17. The treatment group was bred with the control diet again for further 4 days and then bred with the diet containing 0.1% compound 17 again for 5 days on […]. As db/db mice individually bred in metabolic cages show wide variation in feed and drinking water intakes, 5 animals were housed in a rat metabolic cage and the values obtained in each cage were divided by 5 and shown in Fig. 1. […] Urinary sugar excretion level is 50% or less as compared with the control period even 24 hours after administration is stopped, showing that compound 17 has a carry-over effect.
# [9] = test system: db/db mice; experiment: blood glucose and urinary sugar excretion in db/db mice; format: in vivo; details: 60 mg/kg orally once daily, Fig. 2
# Procedure: Blood was collected from the tail vein of ten db/db mice at 12 weeks of age 2 days before the start of experiments, and the animals were divided into two groups each having an average blood glucose level of 720-740 mg/dl. One group was a control group, while the other group orally received compound 25 at 60 mg/kg once daily. […] SA solid diamond denotes the control group, solid triangle denotes the: group treated with compound 1 at 25 mg/kg, open square denotes the: group treated with compound 1 at 50 mg/kg, and cross denotes the: group treated with compound 25 at 50 mg mg/kg. Each group consists of 10 animals.
# Blood was collected from the tail vein of ten db/db mice at 12 weeks of age, and the animals were divided into two groups, ie, a control group and a compound 25 group, each having an average blood glucose level of about 700 mg/dl and housed in urine-collecting cages. A small amount of blood was collected from the tail vein on days 1, 2, 3, 5, 7 and 10 from the start of experiments to determine blood glucose. Urine was collected for 24 hours at the same intervals to determine urinary sugar excretion level by the oxygen method.
# [10] = test system: immobilized PPARγ receptor; experiment: Surface Plasmon Resonance sensor (BIAcore) binding test; details: BIAcore sensorgram, Fig. 4
# From the text: as §2
# A Surface Plasmon Resonance sensor (BIAcore column) was used to examine whether or not compounds of the present invention bind immobilized PPARγ receptor.
# [11] = test system: PPARα; experiment: transfer (reporter) gene activity assay in transfected COS-1 cells, PPARα; format: cell-based; details: luciferase reporter, 20 hours
# Procedure: Transfection was performed by a standard procedure using a LipofectAMINE reagent from Life Technologies. A 35 mm Petri dish containing 1 x 10^5 cells dispersed in 2 ml of Dulbecco's minimum medium (DMEM) containing 10% fetal bovine serum was incubated in a CO2 incubator for 17 hours. Then, the medium was removed and cells adhered to the Petri dish were washed with phosphate buffered physiological saline (PBS), after which transfection was performed using a LipofectAMINE reagent. […]
# as §1, with “policeman.” for “policeman. Cells were completely disrupted by freezing and thawing and then centrifuged at 4°C (15,000 rpm, 2 min), and the supernatants were used as test samples.”
# [12] = 50 mg/kg intraperitoneally twice weekly
# [13] = Dose 100 mg/kg intraperitoneally
# [14] = Dose 200 mg/kg intraperitoneally
# [15] = Dose 400 mg/kg intraperitoneally
# [16] = groups treated with 100-400 mg/kg
# [17] = diet containing 0.1% compound, Fig. 1
smiles,measurement,setting,value
"C/C(=C\Cc1c(O)c(Cl)c(C)c(C=O)c1O)CC/C=C(\C)C1CC(=O)C(C)(C)O1 (centres unmarked) [Compound 1, Ascofuranone]",Activation of receptors PPARγ,[1],+++ (Activation peak appears at 10^-6-10^-5M.)
same,effect of suppressing pressure rise (blood pressure),"[2]; orally 100 mg/kg from week 3, compared with control group",any significant effect of suppressing pressure rise was not observed
same,aneurysms (mean ± SE) per mesenteric artery,"[2]; orally 100 mg/kg from week 3, dissected at week 7, n = 6",0.51 ± 0.37 aneurysms per mesenteric arter
same,weight gain,[3],30 g/week
same,Body weight,[3]; Day 7,307.7±4.8 g/rat
same,Drinking water intake,[3]; Day 7,99.9±13.0 ml/rat/day
same,Feed intake,[3]; Day 7,32.9±1.9 g/rat
same,Urinary sugar excretion,[3]; Day 7,5.39±0.55 g/rat/day
same,Urine volume,[3]; Day 7,74.6±6.4 ml/rat/day
same,Body weight,[3]; Day 14,318.3±6.8 g/rat
same,Drinking water intake,[3]; Day 14,106.9±18.0 ml/rat/day
same,Feed intake,[3]; Day 14,32.6±2.9 g/rat
same,Urinary sugar excretion,[3]; Day 14,5.78±1.09 g/rat/day
same,Urine volume,[3]; Day 14,79.7±12.5 ml/rat/day
same,drinking water intake as compared with the diabetes control group,[3]; day 7,41.4%
same,feed intake decrease as compared with the diabetes control group,[3]; day 7,14.3%
same,drinking water intake as compared with the diabetes control group,[3]; day 14,43.6%
same,feed intake decrease as compared with the diabetes control group,[3]; day 14,23.3%
same,incidence of type I diabetes at week 24,[4]; 25 mg/kg intraperitoneally twice weekly,30%
same,incidence of type I diabetes at week 24,[4]; [12],10%
same,Body weight,[5]; [13],38.0±1.0 g/mouse
same,Serum neutral Serum neutral fat,[5]; [13],258.2 ± 53.2 mg/dL
same,Body weight,[5]; [14],36.7±0.7 g/mouse
same,Serum neutral Serum neutral fat,[5]; [14],185.1 ± 26.2 mg/dL
same,Body weight,[5]; [15],31.3±1.1 g/mouse
same,Serum neutral Serum neutral fat,[5]; [15],99.1 ± 18.3 mg/dL
same,blood TNFα,[5]; [16],downward tendency
same,blood glucose level,[5]; [16],significant increase
same,increase of serum neutral fat,[5]; [16],dose-dependently suppressed
same,toxicity,[6]; orally administered to rodents,very low toxicity
same,effect on serum lipid,"[6]; orally administered, rats bred with a standard diet or a high-fat diet",lowering serum lipid
same,indications of cardiovascular diseases,[7],improves indications of cardiovascular diseases
same,pressure rise,[7],does not suppress pressure rise
"COc1c(C=O)c(C)c(Cl)c(O)c1C/C=C(\C)CC/C=C(\C)C1CC(=O)C(C)(C)O1 (centres unmarked) [Compound 7, 2-O-methyl AF]",Activation of receptors PPARγ,[1],+++ (Activation peak appears at 10^-6-10^-5M.)
"COc1c(Cl)c(C)c(C=O)c(O)c1C/C=C(C)/C=C/[C@@]1(C)[C@H](C)CCC(=O)[C@@H]1C [Compound 17, 4-O-MeAS]",Urinary sugar excretion level as compared with the control period,"[8]; 24 hours after administration is stopped, 0.1% in diet",≤ 50%
same,Urine volume,[8]; [17],sharply decrease
same,urinary sugar excretion level,[8]; [17],sharply decrease
same,urinary sugar level,[8]; [17],sharply decrease
CC(/C=C/C1(C)C(C)CCC(=O)C1C)=C\Cc1c(O)c(C=O)c(C)c(Cl)c1OC(=O)c1cccnc1 (centres unmarked) [Compound 26],Activation of receptors PPARγ,[1],++ (Activation peak appears at 10^-5-10^-4M.)
CC(/C=C/C1(C)C(C)CCC(=O)C1C)=C\Cc1c(O)c(C=O)c(C)c(Cl)c1OCC(=O)O (centres unmarked) [Compound 25],Activation of receptors PPARγ,[1],+++ (Activation peak appears at 10^-6-10^-5M.)
same,blood glucose loss,[9]; day 7,over 30%
same,urinary sugar,[9]; day following the start of administration,decreased to a half
same,blood glucose,[9]; from day 3 of administration,significantly decreased
same,urinary sugar excretion level loss,[9]; on and after day 3,over 90%
same,incidence of type I diabetes at week 24,[4]; [12],10%
"COc1c(C=O)c(C)c(Cl)c(OCC(=O)O)c1C/C=C(C)/C=C/C1(C)C(C)CCC(=O)C1C (centres unmarked) [Compound 27, 4-O-Carboxymethyl-2-O-methylascochlorin]",Activation of receptors PPARγ,[1],++ (Activation peak appears at 10^-5-10^-4M.)
same,binding to immobilized PPARγ receptor (SPR signal),[10],clearly generates a signal
"COc1c(C=O)c(C)c(Cl)c(O)c1C/C=C(C)/C=C/C1(C)C(C)CCC(=O)C1C (centres unmarked) [Compound 21, 2-O-methylascochlorin]",Activation of receptors PPARγ,[1],++ (Activation peak appears at 10^-5-10^-4M.)
"CC(/C=C/C1(C)C(C)CCC(=O)C1C)=C\Cc1c(O)c(C=O)c(C)c(Cl)c1OC(=O)CCCC(=O)O (centres unmarked) [Compound 29, 4-O-(4-Carboxybutanoyl)ascochlorin]",Activation of receptors PPARγ,[1],+++ (Activation peak appears at 10^-6-10^-5M.)
C/C(=C\Cc1c(O)c(Cl)c(C)c(C=O)c1O)CC/C=C(\C)C1=CC(=O)C(C)(C)O1 [Dehydroascofuranone],Activation of receptors PPARα,[11],++ (Activation peak appears at 10^-5-10^-4M.)
